# Test results reported in ChEMBL document CHEMBL5046316, “Structure-Based Optimization of a Fragment-like TLR8 Binding Screening Hit to an In Vivo Efficacious TLR7/8 Antagonist” (ACS Med Chem Lett, 2022).
# System: not listed separately
# Assay: Permeability of compound in dog MDCK cells
# Type: ADME, cell-based, Canis lupus familiaris
# Details: read-out: permeability
row,Papp [×10⁻⁶ cm/s],SMILES
1,33,COc1cc2cc[nH]c2cc1-c1ccncc1
2,38,COc1cc2cn[nH]c2cc1-c1ccncc1

# System: not listed separately
# Assay: Dose normalized Cmax in C57BL/6 mouse at 3 mg/kg, po and 1 mg/kg, iv administered as cassette dose measured upto 24 hrs by LC/MS/MS analysis
# Type: ADME, organism-based
# Details: in vivo
Cmax/dose [nM/mg/kg],Cp(f)/dose [nM/mg/kg],SMILES
113,,Cc1nccc(-c2cc3[nH]nc(NC4CCN(C)CC4)c3cc2C2CC2)c1F
,155,Cc1nccc(-c2cc3[nH]nc(N[C@H]4CCNC[C@@H]4F)c3cc2C2CC2)c1F

# System: not listed separately
# Assay: MRT in C57BL/6 mouse at 3 mg/kg, po or 1 mg/kg, iv administered as cassette dose measured upto 24 hrs by LC/MS/MS analysis
# Type: ADME, organism-based
# Details: in vivo
row,MRT [h],SMILES
1,1.5,Cc1nccc(-c2cc3[nH]nc(NC4CCN(C)CC4)c3cc2C2CC2)c1F
2,1.8,Cc1nccc(-c2cc3[nH]nc(N[C@H]4CCNC[C@@H]4F)c3cc2C2CC2)c1F

# Molecular target: Cytochrome P450 3A4 (Homo sapiens, UniProt P08684)
# Sequence (P08684 whole entry): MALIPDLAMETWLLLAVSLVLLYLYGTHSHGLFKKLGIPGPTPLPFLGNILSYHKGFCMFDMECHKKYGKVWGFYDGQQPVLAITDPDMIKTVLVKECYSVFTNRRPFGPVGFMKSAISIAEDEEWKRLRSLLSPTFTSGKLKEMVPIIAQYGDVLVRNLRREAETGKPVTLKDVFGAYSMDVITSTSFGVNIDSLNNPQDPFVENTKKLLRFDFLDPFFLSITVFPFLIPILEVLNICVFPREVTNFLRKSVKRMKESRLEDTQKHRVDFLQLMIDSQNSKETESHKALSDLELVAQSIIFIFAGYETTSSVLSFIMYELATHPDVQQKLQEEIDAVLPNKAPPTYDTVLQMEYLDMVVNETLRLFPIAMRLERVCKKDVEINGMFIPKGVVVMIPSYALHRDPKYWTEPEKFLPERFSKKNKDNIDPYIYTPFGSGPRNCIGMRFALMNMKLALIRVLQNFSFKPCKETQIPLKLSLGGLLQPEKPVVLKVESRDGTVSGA
# Assay: Inhibition of CYP3A4 (unknown origin)
# Type: ADME
# Details: not given
row,IC50 [nM],SMILES
1,> 25000,Cc1nccc(-c2cc3[nH]nc(NC4CCN(C)CC4)c3cc2C2CC2)c1F
2,4500,Cc1nccc(-c2cc3[nH]nc(N[C@H]4CCNC[C@@H]4F)c3cc2C2CC2)c1F

# Molecular target: T1, Toll-like receptor 9 (Homo sapiens, UniProt Q9NR96)
# T1 sequence (Q9NR96 whole entry): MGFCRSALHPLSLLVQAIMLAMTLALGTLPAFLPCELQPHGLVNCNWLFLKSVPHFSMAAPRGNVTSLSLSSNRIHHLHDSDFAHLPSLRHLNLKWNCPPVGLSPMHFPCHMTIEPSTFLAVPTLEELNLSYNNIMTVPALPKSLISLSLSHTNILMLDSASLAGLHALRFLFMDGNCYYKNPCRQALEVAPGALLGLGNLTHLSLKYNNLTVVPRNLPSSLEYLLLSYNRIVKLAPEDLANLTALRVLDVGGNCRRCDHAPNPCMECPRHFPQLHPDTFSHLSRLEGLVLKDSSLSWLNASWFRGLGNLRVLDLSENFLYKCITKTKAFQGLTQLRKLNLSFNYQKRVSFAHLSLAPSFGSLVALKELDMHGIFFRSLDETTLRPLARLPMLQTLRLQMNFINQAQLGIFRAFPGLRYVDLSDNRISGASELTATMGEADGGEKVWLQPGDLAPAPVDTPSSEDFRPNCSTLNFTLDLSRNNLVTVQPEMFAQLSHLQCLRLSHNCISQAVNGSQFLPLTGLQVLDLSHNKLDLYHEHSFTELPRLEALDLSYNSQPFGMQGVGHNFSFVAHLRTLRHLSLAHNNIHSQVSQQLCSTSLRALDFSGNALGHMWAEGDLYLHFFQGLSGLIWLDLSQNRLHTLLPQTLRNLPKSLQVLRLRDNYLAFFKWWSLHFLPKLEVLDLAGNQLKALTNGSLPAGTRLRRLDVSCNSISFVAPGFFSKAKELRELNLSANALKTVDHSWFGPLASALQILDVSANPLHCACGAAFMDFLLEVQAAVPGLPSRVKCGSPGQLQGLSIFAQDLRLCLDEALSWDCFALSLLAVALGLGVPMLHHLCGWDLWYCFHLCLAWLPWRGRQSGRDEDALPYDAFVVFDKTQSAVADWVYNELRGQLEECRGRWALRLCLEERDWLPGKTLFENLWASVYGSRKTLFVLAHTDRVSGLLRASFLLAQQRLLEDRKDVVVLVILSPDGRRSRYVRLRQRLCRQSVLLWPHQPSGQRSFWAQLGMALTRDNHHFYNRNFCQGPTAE
# Assay: Antagonist activity at human TLR9 expressed in human PBMC cells assessed as inhibition of ODN2216 stimulated IFNalpha level preincubated for 30 mins followed by stimulation and measured after 20 hrs by AlphaLISA method
# Type: cell-based
# Details: not given
row,IC50 [nM],SMILES
1,> 3600,COc1cc2cc[nH]c2cc1-c1ccncc1

# Molecular target: T2, Toll-like receptor 7 (Homo sapiens, UniProt Q9NYK1)
# T2 sequence (Q9NYK1 whole entry): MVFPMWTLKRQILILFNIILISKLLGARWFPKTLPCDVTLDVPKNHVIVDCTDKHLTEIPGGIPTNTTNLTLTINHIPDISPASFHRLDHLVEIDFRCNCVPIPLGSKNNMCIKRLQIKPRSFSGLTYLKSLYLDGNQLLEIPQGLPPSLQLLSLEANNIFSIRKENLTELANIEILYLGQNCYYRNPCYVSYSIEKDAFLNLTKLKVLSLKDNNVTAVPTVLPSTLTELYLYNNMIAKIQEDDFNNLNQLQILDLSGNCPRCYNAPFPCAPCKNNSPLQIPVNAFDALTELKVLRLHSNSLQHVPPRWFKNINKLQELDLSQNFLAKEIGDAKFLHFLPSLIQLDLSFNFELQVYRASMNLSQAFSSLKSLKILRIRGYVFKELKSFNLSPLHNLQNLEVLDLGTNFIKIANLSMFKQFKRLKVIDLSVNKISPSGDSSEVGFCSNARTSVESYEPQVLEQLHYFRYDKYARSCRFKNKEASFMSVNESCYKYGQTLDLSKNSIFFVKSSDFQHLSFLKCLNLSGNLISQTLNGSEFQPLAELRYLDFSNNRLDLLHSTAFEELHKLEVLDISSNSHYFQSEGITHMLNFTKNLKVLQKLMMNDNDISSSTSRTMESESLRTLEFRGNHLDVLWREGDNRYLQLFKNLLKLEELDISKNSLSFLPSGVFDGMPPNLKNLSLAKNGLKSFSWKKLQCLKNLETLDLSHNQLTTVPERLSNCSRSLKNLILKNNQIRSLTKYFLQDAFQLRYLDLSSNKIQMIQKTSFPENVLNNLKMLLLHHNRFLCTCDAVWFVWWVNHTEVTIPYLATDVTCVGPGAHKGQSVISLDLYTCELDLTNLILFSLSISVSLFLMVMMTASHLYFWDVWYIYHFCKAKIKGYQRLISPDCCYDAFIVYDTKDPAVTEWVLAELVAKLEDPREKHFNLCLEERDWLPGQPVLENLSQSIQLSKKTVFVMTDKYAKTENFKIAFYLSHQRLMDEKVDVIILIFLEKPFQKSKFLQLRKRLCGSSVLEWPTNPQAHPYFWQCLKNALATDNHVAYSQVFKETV
# Assay: Antagonist activity at human TLR7 expressed in human PBMC cells assessed as inhibition of ssRNA stimulated IFNalpha level preincubated for 30 mins followed by stimulation and measured after 20 hrs by AlphaLISA method
# Type: cell-based
# Details: not given
row,SMILES,IC50 [nM]
1,COc1cc(-c2cc3[nH]nc(NC4CCN(C)CC4)c3cc2OC)ccn1,11
2,Cc1nccc(-c2cc3[nH]nc(N[C@H]4CCNC[C@@H]4F)c3cc2C2CC2)c1F,0.1
3,COc1cc2cc[nH]c2cc1-c1ccncc1,1700

# Results, then the compound that gave them:
row,IC50 [nM],SMILES
1,0.39,Cc1nccc(-c2cc3[nH]nc(NC4CCN(C)CC4)c3cc2C2CC2)c1F
2,1,Cc1cc2c(NC3CCN(C)CC3)n[nH]c2cc1-c1ccnc(C)c1F

# Molecular target: T3, Toll-like receptor 8 (Homo sapiens, UniProt Q9NR97)
# T3 sequence (Q9NR97 whole entry): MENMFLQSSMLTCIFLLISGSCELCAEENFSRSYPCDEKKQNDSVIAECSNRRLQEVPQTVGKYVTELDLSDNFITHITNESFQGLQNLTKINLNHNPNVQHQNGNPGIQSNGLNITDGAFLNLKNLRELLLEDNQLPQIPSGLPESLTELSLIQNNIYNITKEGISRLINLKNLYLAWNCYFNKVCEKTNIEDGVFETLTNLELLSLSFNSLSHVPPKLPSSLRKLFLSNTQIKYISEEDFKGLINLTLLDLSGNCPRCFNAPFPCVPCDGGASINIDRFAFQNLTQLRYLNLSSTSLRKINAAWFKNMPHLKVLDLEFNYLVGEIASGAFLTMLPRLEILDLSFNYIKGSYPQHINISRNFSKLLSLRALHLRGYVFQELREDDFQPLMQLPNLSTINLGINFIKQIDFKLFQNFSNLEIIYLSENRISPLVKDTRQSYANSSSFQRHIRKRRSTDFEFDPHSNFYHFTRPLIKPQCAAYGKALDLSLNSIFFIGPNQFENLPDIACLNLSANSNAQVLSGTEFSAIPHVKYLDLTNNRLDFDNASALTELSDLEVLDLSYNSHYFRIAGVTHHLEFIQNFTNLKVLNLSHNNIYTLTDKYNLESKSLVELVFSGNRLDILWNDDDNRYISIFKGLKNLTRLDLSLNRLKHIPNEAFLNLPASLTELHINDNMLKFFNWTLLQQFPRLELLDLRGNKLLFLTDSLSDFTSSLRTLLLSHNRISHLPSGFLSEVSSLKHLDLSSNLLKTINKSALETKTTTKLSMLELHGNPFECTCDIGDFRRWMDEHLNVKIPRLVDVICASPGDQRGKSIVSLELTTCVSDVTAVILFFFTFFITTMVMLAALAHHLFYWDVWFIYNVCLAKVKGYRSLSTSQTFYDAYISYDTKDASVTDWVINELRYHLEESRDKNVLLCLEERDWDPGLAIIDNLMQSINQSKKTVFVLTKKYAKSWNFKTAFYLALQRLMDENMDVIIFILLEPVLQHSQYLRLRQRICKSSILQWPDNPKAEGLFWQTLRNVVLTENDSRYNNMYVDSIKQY
# Assay: Antagonist activity at human TLR8 expressed in human PBMC cells assessed as inhibition of ssRNA stimulated TNF level preincubated for 30 mins followed by stimulation and measured after 20 hrs by multiplate reader assay
# Type: cell-based
# Details: not given
row,IC50 [nM],SMILES
1,0.08,Cc1nccc(-c2cc3[nH]nc(NC4CCN(C)CC4)c3cc2C2CC2)c1F
2,3600,COc1cc2cc[nH]c2cc1-c1ccncc1
3,> 9300,COc1cc2cn[nH]c2cc1-c1ccncc1

# Molecular target: Voltage-gated inwardly rectifying potassium channel KCNH2 (Homo sapiens, UniProt Q12809)
# Sequence (Q12809 whole entry): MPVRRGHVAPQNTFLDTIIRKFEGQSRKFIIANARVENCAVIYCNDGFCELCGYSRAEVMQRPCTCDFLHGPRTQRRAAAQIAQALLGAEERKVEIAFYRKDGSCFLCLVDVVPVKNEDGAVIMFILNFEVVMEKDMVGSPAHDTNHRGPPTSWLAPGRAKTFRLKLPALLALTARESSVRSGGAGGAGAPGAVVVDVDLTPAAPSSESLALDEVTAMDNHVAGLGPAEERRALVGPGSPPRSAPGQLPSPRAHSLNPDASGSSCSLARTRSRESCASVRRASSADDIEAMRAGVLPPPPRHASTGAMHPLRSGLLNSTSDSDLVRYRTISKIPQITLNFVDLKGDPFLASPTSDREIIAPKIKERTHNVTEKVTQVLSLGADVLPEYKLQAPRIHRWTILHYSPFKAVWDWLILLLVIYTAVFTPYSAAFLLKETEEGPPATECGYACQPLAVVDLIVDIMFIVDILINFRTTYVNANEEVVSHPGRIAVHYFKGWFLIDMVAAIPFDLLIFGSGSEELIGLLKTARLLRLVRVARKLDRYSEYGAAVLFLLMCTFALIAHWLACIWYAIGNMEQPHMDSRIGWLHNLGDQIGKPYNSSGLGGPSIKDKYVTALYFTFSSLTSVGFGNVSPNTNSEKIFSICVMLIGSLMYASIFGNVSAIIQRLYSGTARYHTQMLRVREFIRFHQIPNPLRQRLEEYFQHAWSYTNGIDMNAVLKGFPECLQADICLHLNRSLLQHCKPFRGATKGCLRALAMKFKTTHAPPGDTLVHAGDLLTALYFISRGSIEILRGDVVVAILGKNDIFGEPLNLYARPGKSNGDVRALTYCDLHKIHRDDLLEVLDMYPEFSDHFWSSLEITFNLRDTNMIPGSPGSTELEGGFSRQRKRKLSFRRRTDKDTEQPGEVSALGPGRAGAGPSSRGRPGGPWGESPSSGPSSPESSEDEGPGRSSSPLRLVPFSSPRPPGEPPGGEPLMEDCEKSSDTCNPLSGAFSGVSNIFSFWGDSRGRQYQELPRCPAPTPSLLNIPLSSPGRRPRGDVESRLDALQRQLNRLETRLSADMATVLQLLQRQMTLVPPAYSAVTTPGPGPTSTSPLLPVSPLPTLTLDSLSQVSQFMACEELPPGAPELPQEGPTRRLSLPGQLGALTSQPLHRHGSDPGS
# Assay: Inhibition of human ERG
# Type: toxicity
# Details: not given
row,SMILES,IC50 [nM]
1,Cc1nccc(-c2cc3[nH]nc(NC4CCN(C)CC4)c3cc2C2CC2)c1F,11000
2,Cc1nccc(-c2cc3[nH]nc(N[C@H]4CCNC[C@@H]4F)c3cc2C2CC2)c1F,19000

# System: not listed separately
# Assay: Dose normalized AUC in C57BL/6 mouse at 3 mg/kg, po and 1 mg/kg,iv administered as cassette dose measured upto 24 hrs by LC/MS/MS analysis
# Type: ADME, organism-based
# Parameters: dose 3 mg/kg, time <=24
# Details: in vivo
row,AUC [nM·h/mg/kg],SMILES
1,485,Cc1nccc(-c2cc3[nH]nc(NC4CCN(C)CC4)c3cc2C2CC2)c1F
2,635,Cc1nccc(-c2cc3[nH]nc(N[C@H]4CCNC[C@@H]4F)c3cc2C2CC2)c1F

# System: not listed separately
# Assay: Clearance in C57BL6 mouse at 3 mg/kg, po or 1mg/kg, iv administered as cassette dose measured upto 24 hrs by LC/MS/MS analysis
# Type: ADME, organism-based
# Details: in vivo
row,clearance [mL/min/kg],SMILES
1,49,Cc1nccc(-c2cc3[nH]nc(NC4CCN(C)CC4)c3cc2C2CC2)c1F
2,28,Cc1nccc(-c2cc3[nH]nc(N[C@H]4CCNC[C@@H]4F)c3cc2C2CC2)c1F

# System: not listed separately
# Assay: Octanol/water partition coefficient, logD of compound at pH 7.4 measured after 4 hrs by shake flask method
# Type: physicochemical
# Details: not given
row,logD at 4 h,SMILES
1,2.5,Cc1nccc(-c2cc3[nH]nc(NC4CCN(C)CC4)c3cc2C2CC2)c1F
2,2.5,Cc1nccc(-c2cc3[nH]nc(N[C@H]4CCNC[C@@H]4F)c3cc2C2CC2)c1F

# System: not listed separately
# Assay: Volume of distribution at steady state in C57BL/6 mouse at 3 mg/kg, po or 1 mg/kg, iv administered as cassette dose measured upto 24 hrs by LC/MS/MS analysis
# Type: ADME, organism-based
# Details: in vivo, read-out: Vdss
row,Vd [L/kg],SMILES
1,4.4,Cc1nccc(-c2cc3[nH]nc(NC4CCN(C)CC4)c3cc2C2CC2)c1F
2,3.1,Cc1nccc(-c2cc3[nH]nc(N[C@H]4CCNC[C@@H]4F)c3cc2C2CC2)c1F

# System: not listed separately
# Assay: Oral bioavailability in C57BL/6 mouse at 3 mg/kg administered as cassette dose measured upto 24 hrs by LC/MS/MS analysis
# Type: ADME, organism-based
# Details: in vivo
row,bioavailability [%],SMILES
1,53,Cc1nccc(-c2cc3[nH]nc(NC4CCN(C)CC4)c3cc2C2CC2)c1F
2,43,Cc1nccc(-c2cc3[nH]nc(N[C@H]4CCNC[C@@H]4F)c3cc2C2CC2)c1F

# Molecular target: T3, Toll-like receptor 8
# Assay: Antagonist activity at human TLR8 expressed in Drosophila S2 by TR-FRET assay
# Details: not given
row,IC50 [nM],SMILES
1,3.6,Cc1nccc(-c2cc3[nH]nc(NC4CCN(C)CC4)c3cc2C2CC2)c1F
2,2,COc1cc2cc[nH]c2cc1-c1ccncc1
3,51,COc1cc2cn[nH]c2cc1-c1ccncc1

# System: not listed separately
# Assay: Dissociation constant, pKa of the compound by UV spectrometric titration method
# Type: physicochemical
# Details: not given
row,SMILES,pKa
1,COc1cc(-c2cc3[nH]nc(NC4CCN(C)CC4)c3cc2OC)ccn1,3.4
2,Cc1nccc(-c2cc3[nH]nc(N[C@H]4CCNC[C@@H]4F)c3cc2C2CC2)c1F,3.9
3,COc1cc2cc[nH]c2cc1-c1ccncc1,5.8
4,COc1cc2cn[nH]c2cc1-c1ccncc1,5.4

# Second part, the compound after the results:
row,pKa,SMILES
1,3.9,Cc1nccc(-c2cc3[nH]nc(NC4CCN(C)CC4)c3cc2C2CC2)c1F
2,3.9,Cc1cc2c(NC3CCN(C)CC3)n[nH]c2cc1-c1ccnc(C)c1F

# Molecular target: Toll-like receptor 4 (Homo sapiens, UniProt O00206)
# Sequence (O00206 whole entry): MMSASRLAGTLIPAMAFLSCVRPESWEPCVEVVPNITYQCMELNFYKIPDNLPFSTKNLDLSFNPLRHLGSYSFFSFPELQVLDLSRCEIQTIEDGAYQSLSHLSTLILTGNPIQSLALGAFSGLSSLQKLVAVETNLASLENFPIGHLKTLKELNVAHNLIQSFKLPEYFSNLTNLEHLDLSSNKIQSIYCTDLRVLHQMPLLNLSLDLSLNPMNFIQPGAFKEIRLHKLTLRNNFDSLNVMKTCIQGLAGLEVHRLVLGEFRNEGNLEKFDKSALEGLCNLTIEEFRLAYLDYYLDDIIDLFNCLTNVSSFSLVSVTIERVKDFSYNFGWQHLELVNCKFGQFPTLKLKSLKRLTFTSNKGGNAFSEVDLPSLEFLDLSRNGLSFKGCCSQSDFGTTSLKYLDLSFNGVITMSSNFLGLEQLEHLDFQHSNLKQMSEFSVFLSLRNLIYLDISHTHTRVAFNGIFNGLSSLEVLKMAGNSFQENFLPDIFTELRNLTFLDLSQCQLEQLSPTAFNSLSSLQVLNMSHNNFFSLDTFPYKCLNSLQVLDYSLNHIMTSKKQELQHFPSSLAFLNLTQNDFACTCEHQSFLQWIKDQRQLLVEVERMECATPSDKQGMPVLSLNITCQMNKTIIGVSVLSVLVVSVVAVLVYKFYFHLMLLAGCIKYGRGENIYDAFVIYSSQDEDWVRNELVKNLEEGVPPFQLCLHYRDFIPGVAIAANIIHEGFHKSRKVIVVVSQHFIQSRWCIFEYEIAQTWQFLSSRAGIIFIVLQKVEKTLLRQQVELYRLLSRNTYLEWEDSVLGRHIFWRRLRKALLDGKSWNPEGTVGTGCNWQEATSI
# Assay: Antagonist activity at human TLR4 expressed in human PBMC cells assessed as inhibition of LPS stimulated TNF level preincubated for 30 mins followed by stimulation and measured after 20 hrs by multiplate reader assay
# Type: cell-based
# Details: not given
row,IC50 [nM],SMILES
1,> 10000,COc1cc2cc[nH]c2cc1-c1ccncc1
